Common to all, as to assay: growth of human tumour cells (NCI), 48 h
The subject of test [1] is BT-549 breast.
The subject of test [2] is HCC-2998 colon.
For test [3], the system named is M14 melanoma.
Test [4] relates to MDA-MB-231 breast.
Test [5] has as its system NCI-H226 lung.
The test system of test [6] is OVCAR-4 ovarian.
The subject of test [7] is RPMI-8226 leukemia.
In test [8] the test system is SF-539 CNS.
Test [9] deals with SNB-75 CNS.
Test [10] has as its system UACC-62 melanoma.

The structures appear in SMILES notation.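 In this assay, cells in 96-well plates receive the compound at five concentrations for 48 hours. Endpoints are linearly interpolated between the surrounding concentrations. At the GI50, growth is halved. Definition used: TGI = concentration required for complete inhibition of growth.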

As to `O=C(O)c1cc(N=Nc2ccc([As](=O)(O)O)cc2)ccc1O`, the TGI in [1], in [2], in test [3], in test [4], in test [5] and in test [6] was greater than 100 µM throughout. Also, the TGI in test [7], in test [8], in [9] and in [10] was greater than 100 µM throughout.

Regarding `CCCNC(=S)N/N=C(\C)c1ccccn1`, the GI50 was 1.44 µM in test [1]; 0.523 µM in test [2]; 0.0681 µM in [3]; 0.0757 µM in test [4]; 0.291 µM in test [5]; less than 0.01 µM in [6]. Further, the GI50 in [7] was 0.0268 µM; in test [8], 0.847 µM; in test [9], 1.5 µM; in test [10] it was 0.192 µM. Further, the TGI was greater than 100 µM in test [1]; greater than 100 µM in [2]; 3.65 µM in test [3]; greater than 100 µM in [4]; 4.79 µM in [5]; 0.0441 µM in test [6]. Further, the TGI in [7] was greater than 100 µM; in test [8], greater than 30.9 µM; in [9], greater than 25.7 µM; in [10] it was 3.28 µM.

With `COc1cc(C(=O)O[C@H](C(N)=O)[C@]2(C)CO2)c2ccccc2c1`, the GI50 in [1] is 18.5 µM; in test [3], 15.1 µM; in test [4] it was 13 µM; in test [5], 20.1 µM; in [6], 10.1 µM; in test [7], 22.8 µM. Moreover, the GI50 is 2.41 µM in test [8] and 15.9 µM in test [10]. Moreover, the TGI in test [1] is 38.9 µM; in test [3], 40 µM; in test [4], 27.7 µM; in [5], 38.4 µM; in test [6] it was 48.6 µM; in [7], greater than 100 µM. Further, the TGI in test [8] is 7.55 µM; in test [10], 29.8 µM.

For `Cc1c2c(nn1-c1ccc(S(=O)(=O)/N=C3\SCC(=O)N3C(=O)c3ccccc3)cc1)-c1ccccc1CC2`, the GI50 was 38.6 µM in test [1]; 98.6 µM in test [2]; 22.9 µM in test [3]; 24 µM in test [4]; 24 µM in test [5]; 77.5 µM in test [6]. Besides, the GI50 in test [10] was 18.7 µM. Moreover, the TGI is 92.9 µM in test [1]; greater than 100 µM in [2]; 47.1 µM in test [3]; 58.7 µM in test [4]; 56.4 µM in [5]; greater than 100 µM in [6]. This compound also yielded a TGI in [10] of 37.6 µM.

For `COc1ccc(C2CC(=O)c3c(OC)cc(OC)cc3O2)cc1` (centres undefined), the GI50 in test [1], in test [2], in test [4], in [5], in test [6] and in test [7] was greater than 100 µM in each case. The GI50 in test [8], in test [9] and in [10] was greater than 100 µM in each case. The TGI in test [1], in test [2], in test [4], in [5], in test [6] and in test [7] was greater than 100 µM throughout. Besides, the TGI in test [8], in test [9] and in [10] was greater than 100 µM in each case.

`O=C(O)C1C(C(=O)O)C(C(=O)O)C1C(=O)O` (centres undefined): the TGI in test [1], in [3], in [4], in test [5], in test [6] and in test [7] was greater than 100 µM each time. Besides, the TGI in [8], in test [9] and in [10] was greater than 100 µM throughout.

For `COc1ccc2cc(C(=O)/C=C/c3cccc(OC)c3OC)ccc2c1`, the GI50 in [1] is 20.6 µM; in test [2], 14.2 µM; in test [3], 4.58 µM; in [4] it was 14.8 µM; in test [7], 6.86 µM; in [8], 11.1 µM. Besides, the GI50 is 18.5 µM in test [9] and 2.77 µM in [10]. For the same compound, the TGI is 63.1 µM in test [1]; 27.2 µM in [2]; 16.6 µM in test [3]; 38.5 µM in test [4]; greater than 100 µM in test [7]; 26.1 µM in test [8]. The TGI in [9] worked out at 35.6 µM; in test [10], 11 µM.

In the case of `CC(C)(C)C1=CC(=CC=C2C=CN(CCCCCCCCCCCO)C=C2)C=C(C(C)(C)C)C1=O`, the TGI stood at 4.44 µM in [1]; 2.27 µM in test [2]; 3.57 µM in [3]; 3.28 µM in test [4]; 3.57 µM in [6]; 1.94 µM in test [7]. Besides, the TGI in test [8] amounted to 3.12 µM; in [9], 5.4 µM; in test [10] it was 2.96 µM.

For `COc1cc(-c2c(C#N)c(N)n3c(nc4ccccc43)c2C#N)cc(Br)c1OC`, the GI50 is greater than 100 µM in [1]; greater than 100 µM in [2]; greater than 100 µM in [3]; 2.46 µM in test [4]; greater than 100 µM in test [5]; 6.83 µM in [7]. Moreover, the GI50 was greater than 100 µM in test [8], 2.18 µM in test [9] and 28.3 µM in test [10]. Further, the TGI in test [1], in test [2], in [3], in test [4], in test [5] and in test [7] was greater than 100 µM in each case. Also, the TGI is greater than 100 µM in [8], 9.98 µM in [9] and greater than 100 µM in test [10].

As to `CC(C)CC(N)C(=O)O` (centres undefined), the TGI in test [1], in [3], in test [4], in test [5], in test [6] and in test [7] was greater than 100 µM in each case. The TGI in [8], in [9] and in test [10] was greater than 100 µM each time.

These data come from PubChem BioAssay (NCI).
